Laboratory results: ChEMBL document CHEMBL1250527, “Chalcone glycosides isolated from aerial parts of Brassica rapa L. 'hidabeni' suppress antigen-stimulated degranulation in rat basophilic leukemia RBL-2H3 cells” (Bioorg Med Chem, 2010)
Calls of active or inactive are those of the source. No cut-off for these calls is given here.

How the values were obtained:
RBL-2H3 [1] = experiment: Antiallergic activity against antigen-IgE-mediated degranulation in rat RBL2H3 cells assessed as inhibition of translocation of cytosolic subunit of NADPH oxidase by immunofluorescence technique; assay type: functional, cell-based
RBL-2H3 [2] = experiment: Antiallergic activity against antigen-IgE-mediated degranulation in rat RBL2H3 cells assessed as reduction in DNP-BSA-induced intracellular calcium level at 50 uM after 30 mins; assay type: functional, cell-based
RBL-2H3 [3] = experiment: Antiallergic activity against antigen-IgE-mediated degranulation in rat RBL2H3 cells assessed as reduction in DNP-BSA-induced ROS production at 50 uM after 30 mins; assay type: functional, cell-based
RBL-2H3 [4] = experiment: Antiallergic activity against antigen-IgE-mediated degranulation in rat RBL2H3 cells assessed as inhibition of DNP-BSA-induced beta-hexosaminidase release at 10 to 100 uM; assay type: functional, cell-based
RBL-2H3 [5] = experiment: Antiallergic activity against antigen-IgE-mediated degranulation in rat RBL2H3 cells assessed as inhibition of translocation of p47phox cytosolic subunit of NADPH oxidase by immunofluorescence technique; assay type: functional, cell-based
RBL-2H3 [6] = experiment: Inhibition of NOX-mediated calcium in rat RBL2H3 cells mobilization assessed as antigen-IgE-mediated degranulation; assay type: cell-based
RBL-2H3 [7] = experiment: Antiallergic activity against antigen-IgE-mediated degranulation in rat RBL2H3 cells assessed as inhibition of DNP-BSA-induced intracellular pathway at 50 uM after 30 mins; assay type: functional, cell-based
RBL-2H3 [8] = experiment: Antioxidant activity […] assessed as DPPH radical scavenging activity; assay type: functional

| Compound | Activity (RBL-2H3 [1]) | Activity (RBL-2H3 [2]) | Activity (RBL-2H3 [3]) | Activity (RBL-2H3 [4]) | Activity (RBL-2H3 [5]) | inhibition (RBL-2H3 [6]) | Activity (RBL-2H3 [7]) | Activity (RBL-2H3 [8]) |
| --- | --- | --- | --- | --- | --- | --- | --- | --- |
| COc1cc(C(=O)/C=C/c2ccc(O)cc2)ccc1O[C@@H]1O[C@H](CO)[C@@H](O)[C@H](O)[C@H]1O | Active | Active | Active | Active | Active | Active | Active | inactive |
| COc1ccc(/C=C/C(=O)c2ccc(O[C@@H]3O[C@H](CO)[C@@H](O)[C@H](O)[C@H]3O)c(OC)c2)cc1 | Active | Active | Active | Active | Active | Active | Active | inactive |
